This is an account of results in article PMC6657673, “Synthesis of an α-phosphono-α,α-difluoroacetamide analogue of the diphosphoinositol pentakisphosphate 5-InsP7” (MedChemComm, 2019).

In the assay the target is T1, diphosphoinositol pentakisphosphate kinase 2 (PPIP5K2) (Homo sapiens, UniProt O43314).
T1 construct: kinase domain, residues 41–366 (crystal); residues 1–366 (kinase assay)
T1 sequence (O43314 1-366): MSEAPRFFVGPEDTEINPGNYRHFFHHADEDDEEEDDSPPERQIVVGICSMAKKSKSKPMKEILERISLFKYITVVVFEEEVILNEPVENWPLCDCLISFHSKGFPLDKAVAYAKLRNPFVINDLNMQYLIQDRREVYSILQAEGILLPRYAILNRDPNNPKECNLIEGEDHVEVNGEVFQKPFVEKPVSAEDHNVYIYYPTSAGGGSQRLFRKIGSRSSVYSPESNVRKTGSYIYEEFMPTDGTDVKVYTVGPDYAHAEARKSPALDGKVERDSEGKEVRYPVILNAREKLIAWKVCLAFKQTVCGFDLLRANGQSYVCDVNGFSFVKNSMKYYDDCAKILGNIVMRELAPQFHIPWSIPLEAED
The assay is described as follows: X-ray co-crystal structure (soak); also reverse-kinase inhibition assay (ATP generation from ADP and […]-[PP]2-InsP4). It is filed as biochemical.

For `O=C(N[C@@H]1[C@@H](OP(=O)(O)O)[C@H](OP(=O)(O)O)[C@H](OP(=O)(O)O)[C@H](OP(=O)(O)O)[C@H]1OP(=O)(O)O)C(F)(F)P(=O)(O)O` [compound 1, 5-Deoxy-5-(phosphonodifluoroacetamido)-myo-inositol 1,2,3,4,6-pentakisphosphate], the IC50 – broadly, the concentration that inhibits the measured activity by half – worked out at 375 nM.
